Assays:
[1] = test system: tolerance induced by morphine; assay: Antagonism to the development of tolerance to repeated administration of morphine HCl (tail flick); format: in vivo, rats
Protocol: Several of the compounds of the invention were examined to determine any capacity to antagonise the development of tolerance induced by morphine. Groups of six male rats having a weight of about 200-250 were used.
At intervals of 24 hours from the first treatment (time 0), each animal (except for the control group treated with a physiological solution) received 3 mg/kg of morphine hydrochloride i.p. together with 3 mg/kg i.p. of the compounds indicated (with the exception of the group treated solely with morphine).
The determination of the threshold for the pain stimulus was effected at 15°, 30', 45' and 60' intervals from the treatment by the "tail flick" test.

[2] = test system: guinea pig gall bladder contracted with CCK-8; assay: Anti-CCK activity on guinea pig gall bladders in vitro; format: biochemical; settings: CCK-8 10 ng/ml, concentration antagonising 50% of contracting effect
Protocol: A longitudinal strip of guinea pig gall bladder is placed in a bath of Krebs for isolated organs at a temperature of 32° C. and oxygenated continuously with an oxygen-CO2 mixture (95-5 V/V).
The […] contractions are detected by means of a force transducer and recorded.
The gall bladder is contracted with the use of a CCK-8 solution at a concentration of 10 ng/ml; the antagonistic activity of the compounds of the invention towards the contracting effect of the CCK is determined with the use of different concentrations, the ED50 value, that is the concentration of the compound in mcg/ml capable of antagonising 50% of the contracting effect of the CCK, being determined.
The results obtained are set out in the following table which gives the compounds tested and the ED50 values which are calculated by the method of regression on a test of at least three experiments for each compound studied.

[3] = test system: analgesic activity of morphine; assay: Tail Flick Test: increase in the analgesic effect of morphine; format: in vivo, rats; settings: for percentage variation in the latency of the pain sensation, 10' / percentage variation in the latency of the pain sensation, 20' / percentage variation in the latency of the pain sensation, 30' / percentage variation in the latency of the pain sensation, 45' / percentage variation in the latency of the pain sensation, 60' / percentage variation in the latency of the pain sensation, 90' / M(10'-90') average percentage variation: compound 10 mg/kg i.p. + morphine 2 mg/kg (row Morphine: alone); for percentage variation in the latency of the pain sensation, 10' / percentage variation in the latency of the pain sensation, 20' / percentage variation in the latency of the pain sensation, 30' / percentage variation in the latency of the pain sensation, 45' / percentage variation in the latency of the pain sensation, 60' / percentage variation in the latency of the pain sensation, 90': ± S.E.; for M(10'-90') average percentage variation: mean 10'-90'; for Potency ratio relative to morphine alone: rat, in vivo
Protocol: Increase in the analgesic effect of analgesic-narcotic drugs in rats in the Tail Flick Test
The method is that described by Harris et al. (J. Pharmacol. Exp. Ther. 143 (1964) 141-148).
Male rats are used which have a weight of about 150-200 g and which have not been fasting. A point is chosen on the tail and this is irradiated by a heat source (75° C.) and the time (in seconds) for which the animal remains without moving its tail is measured.
A maximum period of time under the heat source of 8 seconds is chosen after which the animal is, in any case, removed in order to avoid tissue damage. The measurement is effected before (controls) and after treatment with the drugs.
. The percentage variation is calculated for each individual animal by the following formula: [formula] The measurements are carried out 10, 20, 30, 45, 60 and 90 minutes after treatment with the analgesics.
The results obtained are given in Table 1 which records the groups treated and the doses administered, the
average percentage variations (calculated on groups of five animals) in […]

[4] = test system: analgesic activity of DALA; assay: Tail Flick test: increase in the analgesic activity of DALA (i.c.v.); format: in vivo, rats; settings: b802: 0.001 g/kg
Protocol: In order to check one of the possible mechanisms for the action of the compounds of the invention, that is, their possible inhibition of the enzymatic degradation of endogenous enkephalins, the following experiment was carried out:
A cannula was implanted in the right lateral ventricle of male rats having a weight of 150-200 g (groups of five animals were used) in order to allow the intracerebroventricular (i.c.v.) administration of drugs according to the method of Noble et al (Life Science 6, (1970) 281-291).
The animals were subsequently treated (i.c.v.) with 3 μg of D-ala-methionine-enkephalinamide (DALA) immediately after an injection (i.c.v.) of the compounds under study at the doses given in Table 4. Analgesia was tested for by the Tail Flick method already mentioned, at the times

[5] = days 0-7, 3 mg/kg + morphine (row Morphine: alone)

O=C(N[C@@H](Cc1c[nH]c2ccccc12)C(=O)O)OCc1ccc(F)cc1 [Compound 1, N-p-fluorocarbobenzoxy-L-tryptophan]
percentage variation in the latency time, day 0 ([1]; day 0, 3 mg/kg i.p. + morphine HCl 3 mg/kg i.p. (row Morphine: alone)): 44.25%
percentage variation in the latency time, day 1 ([1]; day 1, 3 mg/kg i.p. + morphine HCl 3 mg/kg i.p. (row Morphine: alone)): 69.33%
percentage variation in the latency time, day 2 ([1]; day 2, 3 mg/kg i.p. + morphine HCl 3 mg/kg i.p. (row Morphine: alone)): 69.21%
percentage variation in the latency time, day 3 ([1]; day 3, 3 mg/kg i.p. + morphine HCl 3 mg/kg i.p. (row Morphine: alone)): 54.03%
percentage variation in the latency time, day 4 ([1]; day 4, 3 mg/kg i.p. + morphine HCl 3 mg/kg i.p. (row Morphine: alone)): 21.91%
percentage variation in the latency time, day 5 ([1]; day 5, 3 mg/kg i.p. + morphine HCl 3 mg/kg i.p. (row Morphine: alone)): 33.35%
percentage variation in the latency time, day 6 ([1]; day 6, 3 mg/kg i.p. + morphine HCl 3 mg/kg i.p. (row Morphine: alone)): 36.44%
percentage variation in the latency time, day 7 ([1]; day 7, 3 mg/kg i.p. + morphine HCl 3 mg/kg i.p. (row Morphine: alone)): 16.1%
Area subtended (1) [1, 5]: 342.6 Effect-Day
regression line % Effect versus Day [1, 5]: % Effect = - 5.97 Day + 63.96
Area 1 / Area Morphine ([1]; days 0-7, 3 mg/kg + morphine, ratio to morphine alone): 2.44
Anti CCK-8 activity, ED50 [2]: 59.9 µg/mL
percentage variation in the latency of the pain sensation, 10' [3]: 37.6 ± 12.9%
percentage variation in the latency of the pain sensation, 20' [3]: 89.2 ± 7.3%
percentage variation in the latency of the pain sensation, 30' [3]: 96.4 ± 3.5%
percentage variation in the latency of the pain sensation, 45' [3]: 82.6 ± 12.5%
percentage variation in the latency of the pain sensation, 60' [3]: 87.2 ± 7.8%
percentage variation in the latency of the pain sensation, 90' [3]: 40.6 ± 17.7%
M(10'-90') average percentage variation [3]: 72.3%
Potency ratio relative to morphine alone [3]: 2.43

CCCCc1ccc(C(=O)N[C@@H](Cc2c[nH]c3ccccc23)C(=O)O)cc1 [Compound 23]
Anti CCK-8 activity, ED50 [2]: 74.0 µg/mL
percentage variation in the latency of the pain sensation, 10' [3]: 47.9 ± 15.7%
percentage variation in the latency of the pain sensation, 20' [3]: 50.3 ± 10.1%
percentage variation in the latency of the pain sensation, 30' [3]: 56.9 ± 20.6%
percentage variation in the latency of the pain sensation, 45' [3]: 67.2 ± 20.9%
percentage variation in the latency of the pain sensation, 60' [3]: 41.1 ± 16.3%
percentage variation in the latency of the pain sensation, 90' [3]: 36.1 ± 18.0%
M(10'-90') average percentage variation [3]: 49.9%
Potency ratio relative to morphine alone [3]: 1.67

CC(C)Cc1ccc(C(=O)N[C@@H](Cc2c[nH]c3ccccc23)C(=O)O)cc1 [Compound 24]
Anti CCK-8 activity, ED50 [2]: 327.7 µg/mL
percentage variation in the latency of the pain sensation, 10' [3]: 66.9 ± 14.8%
percentage variation in the latency of the pain sensation, 20' [3]: 61.9 ± 17.5%
percentage variation in the latency of the pain sensation, 30' [3]: 84.4 ± 11.6%
percentage variation in the latency of the pain sensation, 45' [3]: 69.1 ± 14.9%
percentage variation in the latency of the pain sensation, 60' [3]: 65.2 ± 11.4%
percentage variation in the latency of the pain sensation, 90' [3]: 32.7 ± 19.9%
M(10'-90') average percentage variation [3]: 63.4%
Potency ratio relative to morphine alone [3]: 2.13

CCCCCc1ccc(C(=O)N[C@@H](Cc2c[nH]c3ccccc23)C(=O)O)cc1 [Compound 25]
Anti CCK-8 activity, ED50 [2]: 103.8 µg/mL
percentage variation in the latency of the pain sensation, 10' [3]: 32.9 ± 17.3%
percentage variation in the latency of the pain sensation, 20' [3]: 63.7 ± 19.1%
percentage variation in the latency of the pain sensation, 30' [3]: 97.5 ± 2.5%
percentage variation in the latency of the pain sensation, 45' [3]: 100.0 ± 0.0%
percentage variation in the latency of the pain sensation, 60' [3]: 100.0 ± 0.0%
percentage variation in the latency of the pain sensation, 90' [3]: 82.9 ± 17.1%
M(10'-90') average percentage variation [3]: 79.5%
Potency ratio relative to morphine alone [3]: 2.67

CCCCCCCc1ccc(C(=O)N[C@@H](Cc2c[nH]c3ccccc23)C(=O)O)cc1 [Compound 27]
Anti CCK-8 activity, ED50 [2]: 148.5 µg/mL
percentage variation in the latency of the pain sensation, 10' [3]: 73.8 ± 18.1%
percentage variation in the latency of the pain sensation, 20' [3]: 95.2 ± 4.7%
percentage variation in the latency of the pain sensation, 30' [3]: 86.6 ± 9.0%
percentage variation in the latency of the pain sensation, 45' [3]: 87.7 ± 12.3%
percentage variation in the latency of the pain sensation, 60' [3]: 83.8 ± 9.9%
percentage variation in the latency of the pain sensation, 90' [3]: 88.4 ± 8.5%
M(10'-90') average percentage variation [3]: 85.9%
Potency ratio relative to morphine alone [3]: 2.88

CCCCCCCCCc1ccc(C(=O)N[C@@H](Cc2c[nH]c3ccccc23)C(=O)O)cc1 [Compound 28]
Anti CCK-8 activity, ED50 [2]: 18.9 µg/mL
percentage variation in the latency of the pain sensation, 10' [3]: 79.5 ± 12.7%
percentage variation in the latency of the pain sensation, 20' [3]: 100.0 ± 0.0%
percentage variation in the latency of the pain sensation, 30' [3]: 98.0 ± 2.0%
percentage variation in the latency of the pain sensation, 45' [3]: 100.0 ± 0.0%
percentage variation in the latency of the pain sensation, 60' [3]: 82.2 ± 17.8%
percentage variation in the latency of the pain sensation, 90' [3]: 78.8 ± 11.4%
M(10'-90') average percentage variation [3]: 89.7%
Potency ratio relative to morphine alone [3]: 3.01

Cc1ccc(C(=O)N[C@@H](Cc2c[nH]c3ccccc23)C(=O)O)cc1C [Compound 29]
Anti CCK-8 activity, ED50 [2]: IN (inactive up to 400 mcg/ml)
percentage variation in the latency of the pain sensation, 10' [3]: 54.7 ± 14.1%
percentage variation in the latency of the pain sensation, 20' [3]: 62.6 ± 16.5%
percentage variation in the latency of the pain sensation, 30' [3]: 62.8 ± 17.5%
percentage variation in the latency of the pain sensation, 45' [3]: 65.9 ± 16.0%
percentage variation in the latency of the pain sensation, 60' [3]: 51.4 ± 12.7%
percentage variation in the latency of the pain sensation, 90' [3]: 52.5 ± 15.7%
M(10'-90') average percentage variation [3]: 58.3%
Potency ratio relative to morphine alone [3]: 1.96

O=C(N[C@@H](Cc1c[nH]c2ccccc12)C(=O)O)c1ccc(C(F)(F)F)cc1 [Compound 30]
Anti CCK-8 activity, ED50 [2]: IN (inactive up to 400 mcg/ml)
percentage variation in the latency of the pain sensation, 10' [3]: 9.8 ± 10.5%
percentage variation in the latency of the pain sensation, 20' [3]: 45.6 ± 16.1%
percentage variation in the latency of the pain sensation, 30' [3]: 69.3 ± 22.2%
percentage variation in the latency of the pain sensation, 45' [3]: 62.3 ± 21.9%
percentage variation in the latency of the pain sensation, 60' [3]: 54.8 ± 17.6%
percentage variation in the latency of the pain sensation, 90' [3]: 24.7 ± 15.5%
M(10'-90') average percentage variation [3]: 43.6%
Potency ratio relative to morphine alone [3]: 1.46

N#Cc1ccc(C(=O)N[C@@H](Cc2c[nH]c3ccccc23)C(=O)O)cc1 [Compound 31]
Anti CCK-8 activity, ED50 [2]: IN (inactive up to 400 mcg/ml)
percentage variation in the latency of the pain sensation, 10' [3]: 67.6 ± 16.1%
percentage variation in the latency of the pain sensation, 20' [3]: 66.3 ± 3.5%
percentage variation in the latency of the pain sensation, 30' [3]: 81.4 ± 14.7%
percentage variation in the latency of the pain sensation, 45' [3]: 73.4 ± 18.0%
percentage variation in the latency of the pain sensation, 60' [3]: 77.4 ± 10.3%
percentage variation in the latency of the pain sensation, 90' [3]: 21.3 ± 16.5%
M(10'-90') average percentage variation [3]: 64.6%
Potency ratio relative to morphine alone [3]: 2.17

N#Cc1cccc(C(=O)N[C@@H](Cc2c[nH]c3ccccc23)C(=O)O)c1 [Compound 32]
Anti CCK-8 activity, ED50 [2]: IN (inactive up to 400 mcg/ml)
percentage variation in the latency of the pain sensation, 10' [3]: 18.7 ± 6.7%
percentage variation in the latency of the pain sensation, 20' [3]: 60.7 ± 15.5%
percentage variation in the latency of the pain sensation, 30' [3]: 63.7 ± 16.3%
percentage variation in the latency of the pain sensation, 45' [3]: 63.7 ± 16.3%
percentage variation in the latency of the pain sensation, 60' [3]: 45.8 ± 16.1%
percentage variation in the latency of the pain sensation, 90' [3]: 22.8 ± 12.2%
M(10'-90') average percentage variation [3]: 43.0%
Potency ratio relative to morphine alone [3]: 1.44

CCCN(CCC)C(=O)C(CCC(=O)O)NC(=O)c1ccccc1 (stereo not drawn) [proglumide, reference compound]
potentiating action on the analgesic effect of DALA (in words) [4]: highly significant
